Reference: ChEMBL document CHEMBL1127111, “Synthesis of non reducible inhibitors for trypanothione reductase from Trypanosoma cruzi” (Bioorg Med Chem Lett, 1993)
Active and inactive are the calls of the source. The rule behind the calls is not given here.

Key:
[1] = system: Glutathione reductase (Bos taurus); assay: Compound was tested for inhibitory activity against glutathione reductase from bovine intestinal mucosa; NI means no inhibition
Trypanothione reductase = Trypanothione reductase (Trypanosoma cruzi, UniProt P28593); assay: Compound was tested for inhibitory activity against recombinant Trypanothione reductase from Trypanosoma cruzi
Trypanothione reductase, sequence (P28593 whole entry): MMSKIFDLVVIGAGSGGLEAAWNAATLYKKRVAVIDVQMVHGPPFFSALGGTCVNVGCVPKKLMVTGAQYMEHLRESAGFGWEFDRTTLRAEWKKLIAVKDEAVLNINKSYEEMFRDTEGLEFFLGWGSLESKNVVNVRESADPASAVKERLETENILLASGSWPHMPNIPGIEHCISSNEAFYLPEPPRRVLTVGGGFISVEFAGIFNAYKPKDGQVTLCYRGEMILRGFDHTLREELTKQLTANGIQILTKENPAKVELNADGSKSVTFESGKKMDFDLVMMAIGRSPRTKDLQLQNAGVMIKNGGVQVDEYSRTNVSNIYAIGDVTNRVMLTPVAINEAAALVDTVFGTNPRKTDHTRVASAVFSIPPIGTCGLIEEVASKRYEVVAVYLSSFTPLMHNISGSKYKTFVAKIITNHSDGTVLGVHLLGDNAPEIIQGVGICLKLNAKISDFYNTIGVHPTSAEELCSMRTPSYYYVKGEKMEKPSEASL

Activity [1] | Ki (Trypanothione reductase) [µM] | Structure (SMILES)
inactive | 43 | CN(C)CCCNC(=O)CNC(=O)C(CCSCC(NC(=O)OCc1ccccc1)C(=O)NCC(=O)NCCCN(C)C)NC(=O)OCc1ccccc1 (stereo unspecified)
inactive | 31 | CN(C)CCCNC(=O)CNC(=O)C(CSCSCC(NC(=O)OCc1ccccc1)C(=O)NCC(=O)NCCCN(C)C)NC(=O)OCc1ccccc1 (stereo unspecified)
inactive | 92 | CN(C)CCCNC(=O)CNC(=O)C(CSCC(NC(=O)OCc1ccccc1)C(=O)NCC(=O)NCCCN(C)C)NC(=O)OCc1ccccc1 (stereo unspecified)
